Counter-ions that a name gives are not always drawn.
Columns and labels:
[1] = system: human HT-29 cell xenografts; test: Assessment of survival (increased life span) in mice with human HT-29 xenografts; format: in vivo; settings: for 50% Treatment Days: median survival, Kaplan Meier, vehicle 30 days, same doses
Experimental: (§1) Mice were implanted with human HT-29 cell xenografts. The mice, cell line used, and implantation are described below.
For survival assessment, the percent of increased life space (ILS) was calculated as: 100×[(median survival day of treated group−median survival day of control group)/median survival day of control group]. Median survival was determined utilizing Kaplan Meier survival analysis. […] Differences between groups were considered significant when the probability value (p) was ≦0.05.

[2] = system: human HT-29 cell xenografts; test: Antitumor activity (tumor growth inhibition, regression) in mice with human HT-29 colorectal cancer xenografts; format: in vivo; settings: for % Tumor Growth Inhibition: Compound I 25 mg/kg bid, cetuximab 40 mg/kg 2x/wk, irinotecan HCl 40 mg/kg q4d x5, alone or combined
Description: as §1
Tumor measurements were taken once or twice per week. All animals were individually followed throughout the experiment.

[3] = number of mice out of 10 per group, same doses

| Structure (SMILES) | % ILS ([1]; increased life span versus vehicle, Compound I 25 mg/kg bid, cetuximab 40 mg/kg 2x/wk, irinotecan HCl 40 mg/kg q4d x5, alone or combined) [%] | 50% Treatment Days [1] [days] | Mean Tumor Volume (mm^3) End Study ([2]; Compound I 25 mg/kg bid po, cetuximab 40 mg/kg 2x/wk ip, irinotecan HCl 40 mg/kg q4d x5 ip, alone or combined, end of study day 32) [mm^3] | % Tumor Growth Inhibition [2] [%] | Mean Tumor Volume (mm^3) Start Study ([2]; baseline at start of treatment (day 11 post implant)) [mm^3] | % Inhibition end of study Day: 32 ([2]; same doses) [%] | % T/C end of study Day: 32 ([2]; same doses) [%] | Complete Regression [2, 3] | Partial Regression [2, 3] |
| --- | --- | --- | --- | --- | --- | --- | --- | --- | --- |
| CCCS(=O)(=O)Nc1ccc(F)c(C(=O)c2c[nH]c3ncc(-c4ccc(Cl)cc4)cc23)c1F [Compound I, propane-1-sulfonic acid {3-[5-(4-chlorophenyl)-1H-pyrrolo[2,3-b]pyridine-3-carbonyl]-2,4-difluoro-phenyl}-amide] | 80 | 54 | 563.72 | 76 | 136.24 | 76 | 24 |  |  |
| CCc1c2c(nc3ccc(OC(=O)N4CCC(N5CCCCC5)CC4)cc13)-c1cc3c(c(=O)n1C2)COC(=O)[C@]3(O)CC [Irinotecan HCl, irinotecan hydrochloride, reference compound] |  | 35 |  | 59 |  | 59 | 41 | 0 | 0 |
